Read-outs that look alike come from different tables or passages of the source.
Tests used:
hematin polymerization [1] = assay: Inhibition of hematin polymerization (heme polymerization assay); type: biochemical;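 on %Inh1: test concentrations in µM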;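 on %Inh2: test concentrations in µM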;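 on %Inh3: test concentrations in µM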
Experimental: The ability of the 5-phenoxy primaquine analogs to inhibit hematin polymerization was investigated using a protocol modified from the one described previously. […] After it was left standing for 15 min, Tween 20 (0.5 μM; Sigma) was added. […] The assay was performed in triplicate, and results were expressed as the percentage of inhibition relative to hemozoin formation in a negative control. The IC50 values were obtained from the sigmoidal dose–response curves using nonlinear regression curve fitting analyses with GraphPad Prism version 3.00 software. Each IC50 value is the result of at least three separate experiments.

P. falciparum 3D7 = assay: In vitro blood antimalarial activity, malaria SYBR green I-based fluorescence (MSF) method; type: cell-based; conditions: Plasmodium falciparum; P. falciparum 3D7, blood stage, 48 h, mean ± SD of three biological repeats
Experimental: P. falciparum strain 3D7 (wild-type drug sensitive strain) was used in this study. This parasite was maintained continuously in vitro in human O+ erythrocytes (4% hematocrit) at 37 °C under 3% CO2 and 90% N2 in RPMI 1640 culture media (Life Technologies Limited, Paisley, UK) containing 2 mM L-Glutamine, 25 mM HEPES (Sigma), pH 7.4, 2g/L NaHCO3, 40 mg/L gentamicin, 0.37 mM hypoxanthine, and supplemented with 5 g/L Albumax I (Life Technologies, Grand Island, NY, USA). Every 3 to 4 days, the parasite culture was synchronized with 5% sorbitol and transferred into complete medium with uninfected erythrocytes. In vitro antimalarial activity was determined by using the malaria SYBR green I-based fluorescence (MSF) method. Briefly, 0.09 mL of cultured 1% ring-stage synchronized parasites and 2% hematocrit were transferred to individual wells of a standard 96-well microtiter plate and in vitro culture continued for 48 h, with 0.01 mL of compound at different concentration in each well. The compounds were first dissolved in DMSO and diluted with RPMI medium to 1% DMSO. The final concentration of DMSO in each well was 0.1%, which caused no effect on the parasite viability. Following 48 h, SYBR Green I solution (0.02 µL of 10,000X SYBR Green I/100 µL of buffer solution consisted of 20 mM Tris 20, pH 7.5, 5 mM EDTA, 0.008% w/v saponin and 0.08% v/v Triton X-100) was then added to each well, and fluorescence signals were measured by spectrofluorometer at ex485/em 535 nm. […] The result of each compound was normalized with control media for the overall background subtraction as 0% and untreated parasite with 0.1% DMSO as 100% control.

[2] = system: African green monkey kidney fibroblast (Vero cells); assay: Cytotoxicity by sulforhodamine B (SRB) colorimetric assay; type: cell-based; conditions: Vero CC50 / P. falciparum 3D7 IC50
Text: (§1) A cytotoxicity test of selected analogs against African green monkey kidney fibroblast (Vero cells) was obtained from Bioassay Laboratory, BIOTEC, NSTDA, Thailand. They were maintained continuously in MEM/EBSS medium (Hyclone Laboratories Inc., South Logan, UT, USA), supplemented with 10% heated fetal bovine serum (GE Healthcare, PAA Laboratories GmbH, Pasching, Austria), 2.2 g/L Sodium bicarbonate (Emsure, Merck kGaA, Darmstadt, Germany), and 1% sodium pyruvate (Sigma). […] Then, the cells were fixed with 100 µL of 10% trichloroacetic acid (Sigma) at 4 °C for 45 min, washed, and dried at room temperature overnight. […] Finally, 200 µL of 10× Tris-base was added to each well to dissolve protein-bound dye. The OD was determined at a wavelength of 510 nm. The control media was used for overall background subtraction as 0% and untreated cells as 100% control without any cytotoxic effect. The IC50 value of each compound was determined from the dose–response curve.

[3] = as above; type: cell-based, African green monkey; conditions: African green monkey, Vero cells (kidney fibroblasts); Vero cells, 72 h, SRB, mean ± SD of three repeats
Text: as §1

hematin polymerization [4] = system: hematin polymerization; set-up: method as in PMID 10049273; conditions: literature value; read-out: IC50, hematin polymerization inhibition; cited from earlier work
[5] = pH 5.0, mean ± SD of three independent repeats, read-out: IC50, inhibition of hemozoin-initiated hematin polymerization
[6] = primary data, repeat 1, read-out: IC50, heme polymerization inhibition, repeat 1
[7] = primary data, repeat 2, read-out: IC50, heme polymerization inhibition, repeat 2
[8] = primary data, repeat 3, read-out: IC50, heme polymerization inhibition, repeat 3

IC50 (hematin polymerization [1]; [5]) [µM] | IC50 (hematin polymerization [1]; [6]) [µM] | Structure (SMILES) | %Inh1 (hematin polymerization [1]; conc 2, repeat 1) [%] | %Inh2 (hematin polymerization [1]; conc 2, repeat 2) [%] | %Inh3 (hematin polymerization [1]; conc 2, repeat 3) [%] | %Inh1 (hematin polymerization [1]; conc 10, repeat 1) [%] | %Inh2 (hematin polymerization [1]; conc 10, repeat 2) [%] | %Inh3 (hematin polymerization [1]; conc 10, repeat 3) [%] | %Inh1 (hematin polymerization [1]; conc 50, repeat 1) [%] | %Inh2 (hematin polymerization [1]; conc 50, repeat 2) [%] | %Inh3 (hematin polymerization [1]; conc 50, repeat 3) [%] | %Inh1 (hematin polymerization [1]; conc 100, repeat 1) [%] | %Inh2 (hematin polymerization [1]; conc 100, repeat 2) [%] | %Inh3 (hematin polymerization [1]; conc 100, repeat 3) [%] | %Inh1 (hematin polymerization [1]; conc 200, repeat 1) [%] | %Inh2 (hematin polymerization [1]; conc 200, repeat 2) [%] | %Inh3 (hematin polymerization [1]; conc 200, repeat 3) [%] | %Inh1 (hematin polymerization [1]; conc 400, repeat 1) [%] | %Inh2 (hematin polymerization [1]; conc 400, repeat 2) [%] | %Inh3 (hematin polymerization [1]; conc 400, repeat 3) [%] | also measured
154 ± 6.4 | 154 | COc1cc(NC(C)CCCN)c2ncccc2c1Oc1ccc(C(N)=O)cc1 (stereo not shown) [7h, 4-((8-((5-Aminopentan-2-yl)amino)-6-methoxyquinolin-5-yl)oxy)benzamide] | 6.92 | 2.87 | 14.16 | 8.33 | 17.48 | 18.60 | 22.32 | 30.21 | 30.28 | 39.91 | 44.86 | 40.80 | 66.71 | 77.84 | 84.25 | 87.23 | 92.60 | 103.26 | IC50 (hematin polymerization [1]; [7]): 162 µM; IC50 (hematin polymerization [1]; [8]): 146 µM; IC50 (P. falciparum 3D7): 13.5 ± 1.57 µM; SI, selectivity index = CC50 on Vero cells / IC50 in the blood stage [2]: >7.41; CC50 at 72 h [3]: > 100 µM
160 ± 2.2 | 162 | COc1ccc(Oc2c(OC)cc(NC(C)CCCN)c3ncccc23)cc1 (stereo not shown) [7b, N^4-(6-Methoxy-5-(4-methoxyphenoxy)quinolin-8-yl)pentane-1,4-diamine] | 2.65 | 5.23 | 1.85 | 5.02 | 7.53 | 11.84 | 15.24 | 19.36 | 16.35 | 40.12 | 39.30 | 42.63 | 67.25 | 67.23 | 71.49 | 94.57 | 90.75 | 98.34 | IC50 (hematin polymerization [1]; [7]): 160 µM; IC50 (hematin polymerization [1]; [8]): 157 µM; IC50 (P. falciparum 3D7): 7.89 ± 0.5 µM; SI, selectivity index = CC50 on Vero cells / IC50 in the blood stage [2]: 7.05; CC50 at 72 h [3]: 55.6 ± 4.34 µM
175 ± 4.3 | 170 | COc1cc(NC(C)CCCN)c2ncccc2c1Oc1ccc(Br)cc1 (stereo not shown) [7c, N^4-(5-(4-Bromophenoxy)-6-methoxyquinolin-8-yl) pentane-1,4-diamine] | 7.63 | 6.63 | 1.36 | 8.52 | 5.82 | 7.32 | 12.67 | 18.23 | 10.74 | 31.46 | 32.12 | 38.23 | 63.35 | 63.64 | 61.57 | 90.44 | 88.93 | 90.95 | IC50 (hematin polymerization [1]; [7]): 181 µM; IC50 (hematin polymerization [1]; [8]): 175 µM; IC50 (P. falciparum 3D7): 7.03 ± 1.31 µM; SI, selectivity index = CC50 on Vero cells / IC50 in the blood stage [2]: 6.00; CC50 at 72 h [3]: 42.2 ± 3.25 µM

The next lines start with the molecule.

Structure (SMILES) | IC50 (hematin polymerization [1]; [5]) [µM] | IC50 (hematin polymerization [1]; [6]) [µM] | %Inh1 (hematin polymerization [1]; conc 2, repeat 1) [%] | %Inh2 (hematin polymerization [1]; conc 2, repeat 2) [%] | %Inh3 (hematin polymerization [1]; conc 2, repeat 3) [%] | %Inh1 (hematin polymerization [1]; conc 10, repeat 1) [%] | %Inh2 (hematin polymerization [1]; conc 10, repeat 2) [%] | %Inh3 (hematin polymerization [1]; conc 10, repeat 3) [%] | %Inh1 (hematin polymerization [1]; conc 50, repeat 1) [%] | %Inh2 (hematin polymerization [1]; conc 50, repeat 2) [%] | %Inh3 (hematin polymerization [1]; conc 50, repeat 3) [%] | %Inh1 (hematin polymerization [1]; conc 100, repeat 1) [%] | %Inh2 (hematin polymerization [1]; conc 100, repeat 2) [%] | %Inh3 (hematin polymerization [1]; conc 100, repeat 3) [%] | %Inh1 (hematin polymerization [1]; conc 200, repeat 1) [%] | %Inh2 (hematin polymerization [1]; conc 200, repeat 2) [%] | %Inh3 (hematin polymerization [1]; conc 200, repeat 3) [%] | %Inh1 (hematin polymerization [1]; conc 400, repeat 1) [%] | %Inh2 (hematin polymerization [1]; conc 400, repeat 2) [%] | %Inh3 (hematin polymerization [1]; conc 400, repeat 3) [%] | also measured
COc1cc(NC(C)CCCN)c2ncccc2c1Oc1ccccc1 (stereo not shown) [7a, N^4-(6-Methoxy-5-phenoxyquinolin-8-yl)pentane-1,4-diamine] | 102 ± 4.1 | 105 | 0.76 | 8.32 | 5.77 | 4.28 | 12.65 | 9.75 | 19.81 | 31.60 | 24.35 | 50.68 | 59.92 | 49.55 | 89.17 | 88.25 | 88.23 | 101.81 | 100.63 | 95.73 | IC50 (hematin polymerization [1]; [7]): 96 µM; IC50 (hematin polymerization [1]; [8]): 104 µM; IC50 (P. falciparum 3D7): 3.65 ± 0.39 µM; SI, selectivity index = CC50 on Vero cells / IC50 in the blood stage [2]: 10.27; CC50 at 72 h [3]: 37.5 ± 5.24 µM
COc1cc(NC(C)CCCN)c2ncccc2c1 (stereo not shown) [PQ, primaquine bisphosphate, reference compound] | 320 ± 12 | 313 | -2.08 | 16.17 | 4.69 | -9.33 | 8.67 | 3.70 | 12.67 | -7.00 | 5.24 | 19.42 | 22.96 | 19.59 | 46.18 | 36.04 | 39.63 | 73.12 | 80.96 | 77.01 | IC50 (hematin polymerization [1]; [7]): 310 µM; IC50 (hematin polymerization [1]; [8]): 337 µM; IC50 (P. falciparum 3D7): 11.3 ± 0.79 µM; IC50 (hematin polymerization [4]): > 2500 µM

— article PMC8272044, “5-Phenoxy Primaquine Analogs and the Tetraoxane Hybrid as Antimalarial Agents” (Molecules, 2021)
